{"source": "ChEMBL document CHEMBL5390252", "about": "“Imidazo[2,1-b]thiazole based indoleamine-2,3-dioxygenase 1 (IDO1) inhibitor: Structure based design, synthesis, bio-evaluation and docking studies” (Bioorg Med Chem Lett, 2023)", "key": {"[1]": {"target": "T1, Indoleamine 2,3-dioxygenase 1 (Homo sapiens, UniProt P14902)", "assay": "Inhibition of human IDO1 using L-tryptophan as substrate assessed as reduction in N-formyl kynurenine formation by UV-visible spectroscopic analysis"}, "HEK293": {"test_system": "HEK293", "assay": "Cytotoxicity against HEK293 cells assessed as reduction in cell viability at 100 uM measured after 24 hrs by alamar blue assay relative to control", "type": "toxicity, cell-based", "details": "human, hek293, 24 h"}, "[2]": {"assay": "Cytotoxicity against HEK293 cells assessed as cell viability at 10 to 50 uM measured after 24 hrs by alamar blue assay relative to control", "type": "toxicity, cell-based", "details": "human, dose 10-50 µM, read-out: Activity"}, "[3]": {"assay": "Cytotoxicity against HEK293 cells assessed as cell viability at 10 to 100 uM measured after 24 hrs by alamar blue assay relative to control", "type": "toxicity, cell-based", "details": "human, dose 10-100 µM, read-out: Activity"}, "[4]": {"target": "T1, Indoleamine 2,3-dioxygenase 1", "assay": "Inhibition of human IDO1 using L-tryptophan as substrate assessed as reduction in N-formyl kynurenine formation at 200 uM by UV-visible spectroscopic analysis relative to control"}, "[5]": {"target": "T1, Indoleamine 2,3-dioxygenase 1", "assay": "Inhibition of human IDO1 using L-tryptophan as substrate assessed as reduction in N-formyl kynurenine formation by measuring inhibition constant by UV-visible spectroscopic analysis"}, "[6]": {"target": "T1, Indoleamine 2,3-dioxygenase 1", "details": "dose 1.0 mM"}}, "note": "pIC50, pKi: −log10 of the molar value."}
{"smiles": "CC(C)(C)CC(C)(C)Nc1c(-c2ccc(C(F)(F)F)cc2)nc2sccn12", "values": [{"measurement": "pIC50", "setting": "[1]", "value": 2.99}]}
{"smiles": "COc1ccc(-c2nc3cc(C)ccn3c2NC(C)(C)C)cc1O", "values": [{"measurement": "pIC50", "setting": "[1]", "value": 3.54}]}
{"smiles": "CC(C)(C)Nc1c(-c2ccc(-c3ccccc3)cc2)nc2sccn12", "values": [{"measurement": "Activity", "setting": "HEK293", "value": "~ 85%"}, {"measurement": "pIC50", "setting": "[1]", "value": 4.64}, {"measurement": "viability at 24 h, up to 50 µM", "setting": "[2]", "value": 100, "unit": "%"}]}
{"smiles": "c1ccc(-c2ccc(-c3nc4sccn4c3NCCN3CCOCC3)cc2)cc1", "values": [{"measurement": "pIC50", "setting": "[1]", "value": 3.97}]}
{"smiles": "CC(C)(C)Nc1c(-c2ccc(C(F)(F)F)cc2)nc2sccn12", "values": [{"measurement": "pIC50", "setting": "[1]", "value": 2.89}]}
{"smiles": "Cc1n[nH]c2c1[C@@H](c1ccc(F)c(F)c1)c1c(N)n[nH]c1O2", "values": [{"measurement": "pIC50", "setting": "[1]", "value": 6.82}]}
{"smiles": "O=C(Cc1ccccc1)Nc1ccc(CCOc2ccccc2-c2cnc[nH]2)cc1", "values": [{"measurement": "pIC50", "setting": "[1]", "value": 7.55}]}
{"smiles": "CC(C)(C)CC(C)(C)Nc1c(-c2ccc(-c3ccccc3)cc2)nc2sccn12", "values": [{"measurement": "pIC50", "setting": "[1]", "value": 4.33}]}
{"smiles": "COc1ccc(-c2nc3sccn3c2NC(C)(C)C)cc1O", "values": [{"measurement": "viability at 24 h, up to 100 µM", "setting": "[3]", "value": 100, "unit": "%"}, {"measurement": "pIC50", "setting": "[1]", "value": 4.89}]}
{"smiles": "O[C@H](c1c(C2CC2)c(Cl)cc2cncn12)C1CC2CCC1CC2", "note": "(stereo partly specified)", "values": [{"measurement": "pIC50", "setting": "[1]", "value": 8.02}]}
{"smiles": "CC(C)(C)Nc1c(-c2ccccc2)nc2sccn12", "values": [{"measurement": "pIC50", "setting": "[1]", "value": 4.37}]}
{"smiles": "O=S(=O)(Nc1cccc2cnccc12)c1ccc2c(c1)OCCO2", "values": [{"measurement": "pIC50", "setting": "[1]", "value": 7.25}]}
{"smiles": "CC(C)(C)CC(C)(C)Nc1c(-c2cccc(C#N)c2)nc2sccn12", "values": [{"measurement": "pIC50", "setting": "[1]", "value": 3.32}]}
{"smiles": "COc1ccc(-c2nc3sccn3c2NC(C)(C)CC(C)(C)C)cc1O", "values": [{"measurement": "pIC50", "setting": "[1]", "value": 4.60}]}
{"smiles": "C[C@H]1c2[nH]c3ccccc3c2C[C@]2(C)C(=O)N(C)C(=S)N12", "values": [{"measurement": "inhibition", "setting": "[4]", "value": 29, "unit": "%"}]}
{"smiles": "COc1cccc(-c2nc3sccn3c2NC(C)(C)C)c1", "values": [{"measurement": "pIC50", "setting": "[1]", "value": 3.55}]}
{"smiles": "CC(C)(C)CC(C)(C)Nc1c(-c2ccccc2)nc2sccn12", "values": [{"measurement": "pIC50", "setting": "[1]", "value": 3.33}]}
{"smiles": "CCNCCc1c[nH]c2c1C(=O)C(c1cccnc1)=CC2=O", "values": [{"measurement": "pKi", "setting": "[5]", "value": 6.80}]}
{"smiles": "CC(C)(C)Nc1c(-c2ccc3c(c2)OCO3)nc2sccn12", "values": [{"measurement": "pIC50", "setting": "[1]", "value": 2.84}]}
{"smiles": "c1ccc2c(c1)[nH]c1cnccc12", "values": [{"measurement": "inhibition", "setting": "[6]", "value": 17, "unit": "%"}]}
{"smiles": "CC(C)(C)Nc1c(-c2ccncc2)nc2sccn12", "values": [{"measurement": "pIC50", "setting": "[1]", "value": 3.04}]}
{"smiles": "CC(C)(C)CC(C)(C)Nc1c(-c2ccncc2)nc2sccn12", "values": [{"measurement": "pIC50", "setting": "[1]", "value": 3.16}]}
{"smiles": "COc1ccc(-c2nc3sccn3c2NCCN2CCOCC2)cc1O", "values": [{"measurement": "pIC50", "setting": "[1]", "value": 4.14}]}
